Measurements: patent publication US11583588B2, “Modular self assembly disassembly (SADA) technologies” (MEMORIAL SLOAN KETTERING CANCER CENTER, priority 2017, dated 2023)
Read-outs that look alike come from different tables or passages of the source.

Tests used:
[1] = Blood and tumor activity after P53-BiDE(noHIS) and 177Lu-Bn-DOTA administration (FIG. 6A, 6D, 6E); type: in vivo, mice; details: 177Lu-Bn-DOTA only
Experimental: FIG. 6A to FIG. 6E depict pharmacokinetics of exemplary SADA-BiDE constructs in vivo. FIG. 6A depicts activity over time after P53-BiDE(noHIS) and Bn-DOTA administration. Each line represents one group, with three mice per group. Triangles denote a group that received P53-BiDE(noHIS) followed by clearing agent (CA) 72 hours later. Squares denote a group that received P53-BiDE(noHIS) without any clearing agent before ^177Lu-Bn-DOTA administration. Circles denote a group that only received ^177Lu-Bn-DOTA but not any SADA-BiDE. Dashed lines correspond to the measured blood activity, while solid lines correspond to the activity measured in the tumor. […] FIG. 6B depicts blood activity of radiolabeled 131I-SADA-BiDE in tumor-free mice. Activity measurements were normalized to the initial measurement for each group. Each line represents one group, with 4-5 mice per group. (+) symbols denote P53-BiDE, (X) symbols denote P63-BiDE and circles denote P73-BiDE. […]
Importantly, even though, as described in the previous examples, P53-BIDE(NOHIS), P53-BiDE, P63-BiDE and P73-BiDE is rapidly cleared from the serum, total tumor uptake of was not affected. With both 24 hours and 72 hours between P53-BIDE(NOHIS) and ^177Lu-Bn-DOTA injections, significant activity (˜15% ID/g) was measured at the tumor site (FIG. 6D) […]

[2] = Clearance of unbound injected Bn-DOTA in a tumor free mouse; type: in vivo; details: within four hours
Experimental: In a tumor free mouse, over 99% of unbound injected Bn-DOTA typically clears from the murine serum within four hours, with the vast majority of it being excreted in the urine within the first 30 minutes. In contrast, previous studies have shown that between 3 to 5% of directly labeled IgG will remain in the blood 48 hours after injection. (Azzopardi, N. et al. (2011) Clin Cancer Res 17, 6329-6337).

[3] = 37° C., cited from earlier work

Row | Compound | tumor activity, Bn-DOTA alone without SADA-BiDE [1] | unbound injected Bn-DOTA cleared from murine serum [2] | Kd ([3]; read-out: dissociation constant (KD), tetramers dissociating into dimers) [nM] | Kd ([3]; read-out: dissociation constant of dimers into monomers) [nM]
1 | O=C(O)CN1CCN(CC(=O)O)CCN(CC(=O)O)C(Cc2ccccc2)CN(CC(=O)O)CC1 (stereo not shown) [Bn-DOTA, Benzyl-1,4,7,10-tetraazacyclododecane-1,4,7,10-tetraacetic acid, reference compound] | no tumor activity was detected | over 99% | – | –
2 | Tetramerization domain of p53 (residues 321-359): Human p53 tetramerization domain (321-359), SADA domain; SEQ ID NO: 1 | – | – | 150 | 1
